Among the data in the supplement of paper PMC10307832 are relative viability values, retold here.

Holding throughout (test): relative viability (nuclei count vs DMSO), 5 days (fraction); higher = more cells survive
Compound in the experiment “TPCA-1 + Palbociclib”: C1=CC(=CC=C1C2=CC(=C(S2)NC(=O)N)C(=O)N)F [TPCA-1] + CC(=O)c1c(C)c2cnc(Nc3ccc(N4CCNCC4)cn3)nc2n(C2CCCC2)c1=O [Palbociclib] (partner 0.5 µM)
In a few lines: (§1)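 Lung cancer cell lines in 1536-well plates got either a single drug or a fixed anchor-drug dose together with five library-drug doses (not always all listed) in √10 steps, by pin tool, on the day after seeding. Nuclei were counted after 5 days, and relative viability is the treated-to-vehicle ratio of nuclei counts. Values are medians of duplicate plates.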

Compound in the experiment “TPCA-1 + Pictilisib”: C1=CC(=CC=C1C2=CC(=C(S2)NC(=O)N)C(=O)N)F [TPCA-1] + CS(=O)(=O)N1CCN(Cc2cc3nc(-c4cccc5[nH]ncc45)nc(N4CCOCC4)c3s2)CC1 [Pictilisib] (partner 1 µM)
The essentials:
as §1

Compound in the experiment “Lestaurtinib + OSI-027”: C[C@]12O[C@H](C[C@]1(O)CO)n1c3ccccc3c3c4c(c5c6ccccc6n2c5c31)CNC4=O [Lestaurtinib] + COc1cccc2cc(-c3nc([C@H]4CC[C@H](C(=O)O)CC4)n4ncnc(N)c34)[nH]c12 [OSI-027] (partner 0.5 µM)
In a few lines: as §1

Compound in experiment [1]: C[C@]12O[C@H](C[C@]1(O)CO)n1c3ccccc3c3c4c(c5c6ccccc6n2c5c31)CNC4=O [Lestaurtinib] + N=C(N)NC(=N)NCCc1ccccc1 [Phenformin] (partner 250 µM)
The essentials:
as §1

Consider UMC-11, for which the relative viability in the experiment with TPCA-1 + Palbociclib (first compound 0.04 µM) was determined as 0.354; with TPCA-1 + Palbociclib (first compound 0.1265 µM) it was 0.316; in the experiment with TPCA-1 + Palbociclib (first compound 0.4 µM) it was 0.299; with TPCA-1 + Palbociclib (first compound 1.265 µM), 0.408; with TPCA-1 + Palbociclib (first compound 4 µM), 0.289; with TPCA-1 + Pictilisib (first compound 0.04 µM) it was 0.781. The relative viability with TPCA-1 + Pictilisib (first compound 0.1265 µM) amounted to 0.685; in the experiment with TPCA-1 + Pictilisib (first compound 0.4 µM), 0.881; with TPCA-1 + Pictilisib (first compound 1.265 µM), 0.735; in the experiment with TPCA-1 + Pictilisib (first compound 4 µM) it was 0.127; in the experiment with Lestaurtinib + OSI-027 (first compound 0.005 µM) it was 0.48; with Lestaurtinib + OSI-027 (first compound 0.01581 µM) it was 0.385. Also, the relative viability was 0.293 with Lestaurtinib + OSI-027 (first compound 0.05 µM); 0.283 with Lestaurtinib + OSI-027 (first compound 0.1581 µM); 0.177 with Lestaurtinib + OSI-027 (first compound 0.5 µM); 0.359 in experiment [1] (first compound 0.005 µM); 0.327 in experiment [1] (first compound 0.01581 µM); 0.239 in experiment [1] (first compound 0.05 µM). Besides, the relative viability in experiment [1] (first compound 0.1581 µM) was 0.176; in experiment [1] (first compound 0.5 µM), 0.144.
